Data from patent publication US10660928B2, “Pharmaceutical composition containing combination extracts of Moutan Root Bark, Angelica Dahurica Root, bupleurum root or fractions thereof for prevention and treatment of neurodegenerative disorder” (UNIVERSITY-INDUSTRY COOPERATION GROUP OF KYUNG HEE …, priority 2014, dated 2020).

Tests used:
SH-SY5Y cells [1] = test: MTT assay, endoplasmic reticulum stress induced by thapsigargin or tunicamycin; type: cell-based, human; conditions: treatment 0.5 μg/ml
Protocol: Particularly, SH-SY5Y cells were cultured by the same manner as described in Experimental Example <1-2>. The cells were treated with 1.0 ug/ml of the Angelica Dahurica Root extract prepared in Example <1-2> or 0.5 μg/ml or 1.0 μg/ml of Imperatorin, the active component thereof, followed by culture for 4 hours. The cells were treated with 0.5 μg/ml of thapsigargin (Thap) or 1 μg/ml of tunicamycin (Tuni), followed by culture for 24 hours to induce endoplasmic reticulum stress. Then, MTT assay was performed by the same manner as described in Experimental Example <1-2>. Compared with the normal control cells not treated with the extract or the active component thereof but treated with DMSO, the damage of mitochondria complex 1 in the cells, either increased or decreased, was investigated. The negative control was treated with 0.5 μg/ml of thapsigargin or 1 μg/ml of tunicamycin to cause endoplasmic reticulum stress but not treated with the extract or the active component thereof, followed by MTT assay by the same manner as described above.

GRP78 = test: RT-PCR of endoplasmic reticulum stress marker GRP78, thapsigargin; type: cell-based, human; conditions: treatment 0.5 μg/ml, thapsigargin 0.5 μg/ml; negative control 100.00
Protocol: (§1) Particularly, SH-SY5Y cells were cultured by the same manner as described in Experimental Example <2-2>, and endoplasmic reticulum stress was induced. Then, RT-PCR was performed with the cells having endoplasmic reticulum stress by the same manner as described in Experimental Example <1-4>, followed by electrophoresis to investigate the expression levels of GRP78 and XBP1p genes on 1.5% agarose gel under UV. The normal control was not treated with the extract of the invention or the active component thereof but treated with DMSO alone. The negative control was not treated with the extract or the active component but treated with 0.5 μg/ml of thapsigargin alone to induce endoplasmic reticulum stress. Then, the expression of the endoplasmic reticulum stress marker gene was confirmed by the same manner as described above.
(§2) Particularly, SH-SY5Y cells were cultured by the same manner as described in Experimental Example <2-2>, and endoplasmic reticulum stress was induced. Then, RT-PCR was performed with the cells having endoplasmic reticulum stress by the same manner as described in Experimental Example <1-4>, followed by electrophoresis to investigate the expression levels of GRP78 and XBP1p genes on 1.5% agarose gel under UV. The normal control was not treated with the extract of the invention but treated with DMSO alone. […]

SH-SY5Y cells [2] = test: ATP assay, endoplasmic reticulum stress induced by thapsigargin or tunicamycin; type: cell-based, human; conditions: treatment 0.5 μg/ml
Protocol: Particularly, SH-SY5Y cells were cultured by the same manner as described in Experimental Example <2-2>, and endoplasmic reticulum stress was induced. Then, the intracellular ATP level was measured by the same manner as described in Experimental Example <1-3>. The normal control was not treated with the extract of the invention or the active component thereof but treated with DMSO alone. All the results were presented as % by the normal control to present the intracellular ATP level. The negative control was not treated with the extract or the active component but treated with 0.5 μg/ml of thapsigargin or 1.0 μg/ml of tunicamycin alone to induce endoplasmic reticulum stress. Then, the Intracellular ATP level was measured by the same manner as described above.

XBP1p = test: RT-PCR of endoplasmic reticulum stress marker XBP1p, thapsigargin; type: cell-based, human; conditions: treatment 0.5 μg/ml, thapsigargin 0.5 μg/ml; negative control 100.00
Protocol: as §1, §2

[3] = system: SH-SY5Y, the human neuroblastoma cell line; test: Cell survival rate (calcein) in normal cells, cytotoxicity; type: cell-based; conditions: human, 4 h, 0.5 μg/ml
Protocol: Particularly, SH-SY5Y, the human neuroblastoma cell line, was inoculated in DMEM/F12 (Dulbeco's Modified Eagle's Medium & Ham's F12; Gibco, USA) supplemented with 10% FBS, followed by culture in a 37° C., 5% CO2/95% air (O2) incubator. Then, the cultured cells were transferred into a serum free medium at the density of 2.5×10^4 cells/well. […] The cells were collected and the cell survival rate was measured by using calcein. The survival rate of the cells that were increased or decreased compared with that of the normal control cells not-treated with the extract or its active component above and instead treated with DMSO was calculated and presented as percentage (%). Particularly, SH-SY5Y cells were cultured by the same manner as described in Experimental Example <1-1>. The cultured cells were transferred in a serum free medium at the density of 2.5×10^4 cells/well. […] The cells were collected and the cell survival rate was measured by using calcein. The cell survival rate that was increased or decreased compared with that of the normal control group not-treated with the extract or its active component above and instead treated with DMSO was calculated and presented as percentage (%).

CC(C)=CCOc1c2occc2cc2ccc(=O)oc12 [Imperatorin, 9-[(3-Methyl-2-buten-1-yl)oxy]-7h-furo[3,2-g][1]benzopyran-7-one]
MTT (% of control) (SH-SY5Y cells [1]; inducer thapsigargin 0.5 μg/ml): 86.23 ± 5.31 % of control | MTT (% of control) (SH-SY5Y cells [1]; inducer tunicamycin 1.0 μg/ml): 84.93 ± 3.68 % of control | GRP78/18S mRNA (GRP78): 2.97 ± 0.05 | Intracellular ATP content (% of control) (SH-SY5Y cells [2]; inducer thapsigargin 0.5 μg/ml): 104.85 ± 5.13 % of control | Intracellular ATP content (% of control) (SH-SY5Y cells [2]; inducer tunicamycin 1.0 μg/ml): 86.00 ± 1.18 % of control | XBP1p/18S mRNA (XBP1p): 4.01 ± 0.05 | Cell survival rate (% of control) [3]: 101.16 ± 0.59 % of control
